Experimental data from patent US20170368082A1, “FORMULATIONS OF BRINCIDOFOVIR” (priority 2016, published 2017).
“Also recorded” adds a separate entry of the source. Read-outs that look alike come from different tables or passages of the source.

Experiments:
[1] = Comparison of toxicity of orally and intravenously administered brincidofovir (rat intestine); type: in vivo; settings: for AUC / Cmax: rat, in vivo; for AUC: read-out: Exposure AUC; for Cmax: read-out: Exposure Cmax
Text: As shown in the figures, IV administration of brincidofovir is more well-tolerated in the intestine.

[2] = IV BCV single ascending dose study in healthy subjects: safety; type: in vivo, human
Procedure: Plasma PK samples were collected over 7 days and assayed by HPLC-MS. Plasma BCV PK parameters were determined by non-compartmental analysis and dose proportionality was assessed. Safety assessments were collected over 14 days.

human whole blood = experiment: Hemolytic potential, cyanmethemoglobin method, human whole blood; type: cell-based; settings: for Mean HgB Concentration: interference control, Phase 2
Procedure: Each concentration of test item for the rat was mixed separately in a 1:4 ratio with rat whole blood while each concentration of test item for the human was mixed separately in a 1:4 ratio with human whole blood. These samples plus control samples [vehicle control (vehicle+whole blood, 1 for rat and 1 for humans), positive control (1% Saponin+whole blood), untreated whole blood control and negative control (saline+whole blood) were analyzed for hemolysis (supernatant hemoglobin concentration).
(§1) The rat and human whole blood samples were incubated in test or control items at 37±1° C. for 20 minutes and then immediately (within 2 minutes) centrifuged at 3500±100 rpm (2740 g) at room temperature for 5-10 minutes. The supernatant was extracted and subjected to a hemoglobin analysis using the cyanmethemoglobin method employed on the Siemens Advia 120 hematology analyzer. If the test item has a potential for causing hemolysis, then hemoglobin released from lysed red blood cells into the plasma supernatant can be quantified via the reaction of heme iron in solution being oxidized from a ferrous to a ferric state in the presence of potassium cyanide. The reaction results in the formation of methemoglobin, which then combines with cyanide to form a stable cyanmethemoglobin. When measured spectrophotometrically at 546 nm the absorbance of cyanmethemoglobin follows Beer's Law and is directly proportional to the concentration of hemoglobin released into solution.
as §1, with “Without wishing to be bound by theory, if” for “If”

[3] = Sprague-Dawley CD, IV, repeat dose 1 mg/kg
[4] = Sprague-Dawley CD, IV, repeat dose 4 mg/kg
[5] = Sprague-Dawley CD, IV, repeat dose 15 mg/kg
[6] = Cohort 1, BCV 10 mg 2 h infusion, n = 6
[7] = Cohort 2, BCV 25 mg 2 h infusion, n = 6
[8] = Cohort 3, BCV 50 mg 2 h infusion, n = 9
[9] = Cohort 4, BCV 50 mg 4 h infusion, n = 9

CCCCCCCCCCCCCCCCOCCCOP(=O)(O)CO[C@H](CO)Cn1ccc(N)nc1=O [Brincidofovir]
Intestinal finding ([1]; IV administration): minimal single-cell effects | Preliminary Findings ([1]; IV, repeat dose 1 mg/kg): No GI findings | AUC [1, 3]: 410 ng·h/mL | Cmax [1, 3]: 298 ng/mL | AUC [1, 4]: 2760 ng·h/mL | Cmax [1, 4]: 1200 ng/mL | AUC [1, 5]: 9890 ng·h/mL | Cmax [1, 5]: 4500 ng/mL | Intestinal finding ([1]; oral administration): significant loss of epithelium in intestinal villi | mortality ([1]; oral, single dose 100 mg/kg): 38% mortality | mortality ([1]; oral, single dose 300 mg/kg): 100% mortality | AUC ([1]; oral, single dose 30 mg/kg): 5560 ng·h/mL | Cmax ([1]; oral, single dose 30 mg/kg): 426 ng/mL | AUC ([1]; oral, single dose 100 mg/kg): 13600 ng·h/mL | Cmax ([1]; oral, single dose 100 mg/kg): 1090 ng/mL | AUC ([1]; oral, single dose 300 mg/kg): 20500 ng·h/mL | Cmax ([1]; oral, single dose 300 mg/kg): 1190 ng/mL | AUC ([1]; oral, single dose 1000 mg/kg): 26400 ng·h/mL | Cmax ([1]; oral, single dose 1000 mg/kg): 1380 ng/mL | Drug-Related AEs: Decreased appetite (number of subjects) [2, 6]: 0 | Drug-Related AEs: Diarrhea (number of subjects) [2, 6]: 0 | Drug-Related AEs: Elevated liver transaminases (number of subjects) [2, 6]: 0 | Drug-Related AEs: Headache (number of subjects) [2, 6]: 0 | Drug-Related AEs: Nausea (number of subjects) [2, 6]: 0 | Drug-Related AEs: Pain, phlebitis at infusion site (number of subjects) [2, 6]: 0 | Grade 3 or 4 Drug-Related AEs: Decreased appetite (number of subjects) [2, 6]: 0 | Grade 3 or 4 Drug-Related AEs: Diarrhea (number of subjects) [2, 6]: 0 | Grade 3 or 4 Drug-Related AEs: Elevated liver transaminases (number of subjects) [2, 6]: 0 | Grade 3 or 4 Drug-Related AEs: Headache (number of subjects) [2, 6]: 0 | Grade 3 or 4 Drug-Related AEs: Nausea (number of subjects) [2, 6]: 0 | Grade 3 or 4 Drug-Related AEs: Pain, phlebitis at infusion site (number of subjects) [2, 6]: 0 | Drug-Related AEs: Decreased appetite (number of subjects) [2, 7]: 0 | Drug-Related AEs: Diarrhea (number of subjects) [2, 7]: 0 | Drug-Related AEs: Elevated liver transaminases (number of subjects) [2, 7]: 0 | Drug-Related AEs: Headache (number of subjects) [2, 7]: 0 | Drug-Related AEs: Nausea (number of subjects) [2, 7]: 0 | Drug-Related AEs: Pain, phlebitis at infusion site (number of subjects) [2, 7]: 0 | Grade 3 or 4 Drug-Related AEs: Decreased appetite (number of subjects) [2, 7]: 0 | Grade 3 or 4 Drug-Related AEs: Diarrhea (number of subjects) [2, 7]: 0 | Grade 3 or 4 Drug-Related AEs: Elevated liver transaminases (number of subjects) [2, 7]: 0 | Grade 3 or 4 Drug-Related AEs: Headache (number of subjects) [2, 7]: 0 | Grade 3 or 4 Drug-Related AEs: Nausea (number of subjects) [2, 7]: 0 | Grade 3 or 4 Drug-Related AEs: Pain, phlebitis at infusion site (number of subjects) [2, 7]: 0 | Drug-Related AEs: Decreased appetite (number of subjects) [2, 8]: 0 | Drug-Related AEs: Diarrhea (% of subjects) [2, 8]: (11%) | Drug-Related AEs: Diarrhea (number of subjects) [2, 8]: 1 | Drug-Related AEs: Elevated liver transaminases (number of subjects) [2, 8]: 0 | Drug-Related AEs: Headache (% of subjects) [2, 8]: (22%) | Drug-Related AEs: Headache (number of subjects) [2, 8]: 2 | Drug-Related AEs: Nausea (number of subjects) [2, 8]: 0 | Drug-Related AEs: Pain, phlebitis at infusion site (% of subjects) [2, 8]: (11%) | Drug-Related AEs: Pain, phlebitis at infusion site (number of subjects) [2, 8]: 1 | Grade 3 or 4 Drug-Related AEs: Decreased appetite (number of subjects) [2, 8]: 0 | Grade 3 or 4 Drug-Related AEs: Diarrhea (number of subjects) [2, 8]: 0 | Grade 3 or 4 Drug-Related AEs: Elevated liver transaminases (number of subjects) [2, 8]: 0 | Grade 3 or 4 Drug-Related AEs: Headache (number of subjects) [2, 8]: 0 | Grade 3 or 4 Drug-Related AEs: Nausea (number of subjects) [2, 8]: 0 | Grade 3 or 4 Drug-Related AEs: Pain, phlebitis at infusion site (number of subjects) [2, 8]: 0 | Drug-Related AEs: Decreased appetite (% of subjects) [2, 9]: (11%) | Drug-Related AEs: Decreased appetite (number of subjects) [2, 9]: 1 | Drug-Related AEs: Diarrhea (% of subjects) [2, 9]: (33%) | Drug-Related AEs: Diarrhea (number of subjects) [2, 9]: 3 | Drug-Related AEs: Elevated liver transaminases (% of subjects) [2, 9]: (11%) | Drug-Related AEs: Elevated liver transaminases (number of subjects) [2, 9]: 1 | Drug-Related AEs: Headache (% of subjects) [2, 9]: (22%) | Drug-Related AEs: Headache (number of subjects) [2, 9]: 2 | Drug-Related AEs: Nausea (% of subjects) [2, 9]: (22%) | Drug-Related AEs: Nausea (number of subjects) [2, 9]: 2 | Drug-Related AEs: Pain, phlebitis at infusion site (number of subjects) [2, 9]: 0 | Grade 3 or 4 Drug-Related AEs: Decreased appetite (number of subjects) [2, 9]: 0 | Grade 3 or 4 Drug-Related AEs: Diarrhea (number of subjects) [2, 9]: 0 | Grade 3 or 4 Drug-Related AEs: Elevated liver transaminases (% of subjects) [2, 9]: (11%) | Grade 3 or 4 Drug-Related AEs: Elevated liver transaminases (number of subjects) [2, 9]: 1 | Grade 3 or 4 Drug-Related AEs: Headache (number of subjects) [2, 9]: 0 | Grade 3 or 4 Drug-Related AEs: Nausea (number of subjects) [2, 9]: 0 | Grade 3 or 4 Drug-Related AEs: Pain, phlebitis at infusion site (number of subjects) [2, 9]: 0 | Adverse events ([2]; IV 10 mg and 25 mg): No drug related adverse events | Safety and tolerability ([2]; IV 10 mg and 25 mg): generally safe and well-tolerated | Bilirubin ([2]; any cohort): No Grade 2 or higher bilirubin | ALT elevations ([2]; cohort 4): transient grade 2-3 ALT elevations | Serious adverse events ([2]; human, in vivo): no serious adverse events occurred | Tolerability ([2]; single doses 10-50 mg, 2h IV infusion): well tolerated | ALT elevations ([2]; therapeutic IV exposures (cohorts 1 and 2)): no grade 2 or higher ALT elevations were observed | Hemocompatibility / hemolytic potential (human whole blood; 0.2, 0.5 and 1.6 mg/mL): no hemolytic potential in human whole blood; also recorded: no effect from brincidofovir on hemocompatibility | Mean HgB Concentration (human whole blood; Tube 2A: Test Item (0.2 mg/mL) + saline): 0.0 g/dL | Mean HgB Concentration (human whole blood; Tube 2B: Test Item (0.5 mg/mL) + saline): 0.0 g/dL | Mean HgB Concentration (human whole blood; Tube 2C: Test Item (1.6 mg/mL) + saline): 0.0 g/dL
